According to publication PMC5218480 (PLoS ONE, 2017):

System: MV-4-11 cells
Test: Gene expression microarray analysis (Affymetrix PrimeView) and GSEA
Format: cell-based, human
Design: RFU PODN (11730768_x_at) / Fold change /veh PODN (11730768_x_at) / RFU LINC00158 (11744669_a_at) / Fold change /veh LINC00158 (11744669_a_at) / RFU DUSP10 (11751237_a_at) / Fold change /veh DUSP10 (11751237_a_at) / RFU ID3 (11757404_x_at) / Fold change /veh ID3 (11757404_x_at) / RFU PLEKHG5 (11737974_s_at) / Fold change /veh PLEKHG5 (11737974_s_at) / RFU LRRC4B (11730491_at) / Fold change /veh LRRC4B (11730491_at) / RFU GIMAP4 (11747438_a_at) / Fold change /veh GIMAP4 (11747438_a_at) / RFU KRT8 (11758183_x_at) / Fold change /veh KRT8 (11758183_x_at) / RFU CNN1 (11734310_a_at) / Fold change /veh CNN1 (11734310_a_at) / RFU VPS37D (11726825_at) / Fold change /veh VPS37D (11726825_at) / RFU C10orf10 (11716522_x_at) / Fold change /veh C10orf10 (11716522_x_at) / RFU KIR2DL2 /// KIR2DL4 /// KIR2DL5A /// KIR2DL5B /// KIR2DS1 /// KIR2DS2 /// KIR2DS3 /// KIR2DS4 /// KIR3DL3 /// KIR3DL3 /// KIR3DS1 (11738374_at) / Fold change /veh KIR2DL2 /// KIR2DL4 /// KIR2DL5A /// KIR2DL5B /// KIR2DS1 /// KIR2DS2 /// KIR2DS3 /// KIR2DS4 /// KIR3DL3 /// KIR3DL3 /// KIR3DS1 (11738374_at) / RFU C1QL1 (11718748_at) / Fold change /veh C1QL1 (11718748_at) / RFU TMPRSS4 (11747572_a_at) / Fold change /veh TMPRSS4 (11747572_a_at) / RFU HAMP (11756126_x_at) / Fold change /veh HAMP (11756126_x_at) / RFU RNFT2 (11725882_a_at) / Fold change /veh RNFT2 (11725882_a_at) / RFU NR4A2 (11747474_a_at) / Fold change /veh NR4A2 (11747474_a_at) / RFU ABCC12 (11746883_a_at) / Fold change /veh ABCC12 (11746883_a_at) / RFU TMEM136 (11760407_x_at) / Fold change /veh TMEM136 (11760407_x_at) / RFU CLDN22 /// WWC2 (11732394_at) / Fold change /veh CLDN22 /// WWC2 (11732394_at) / RFU HLA-DPB1 (11760878_x_at) / Fold change /veh HLA-DPB1 (11760878_x_at) / RFU SPINT1 (11716480_a_at) / Fold change /veh SPINT1 (11716480_a_at) / RFU GAP43 (11754022_s_at) / Fold change /veh GAP43 (11754022_s_at) / RFU A4GNT (11735810_at) / Fold change /veh A4GNT (11735810_at) / RFU PRB3 (11715151_x_at) / Fold change /veh PRB3 (11715151_x_at) / RFU TUBB4B (11761932_at) / Fold change /veh TUBB4B (11761932_at) / RFU CAPN14 (11732068_a_at) / Fold change /veh CAPN14 (11732068_a_at) / RFU TMCC2 (11721928_a_at) / Fold change /veh TMCC2 (11721928_a_at) / RFU IRGQ (11745062_a_at) / Fold change /veh IRGQ (11745062_a_at) / RFU FAM174B (11720279_a_at) / Fold change /veh FAM174B (11720279_a_at) / RFU TMPRSS4 (11748680_a_at) / Fold change /veh TMPRSS4 (11748680_a_at) / RFU FAM212B (11763350_a_at) / Fold change /veh FAM212B (11763350_a_at) / RFU PLEKHG5 (11743358_a_at) / Fold change /veh PLEKHG5 (11743358_a_at) / RFU ZSCAN30 (11745921_a_at) / Fold change /veh ZSCAN30 (11745921_a_at) / RFU CMKLR1 (11741424_a_at) / Fold change /veh CMKLR1 (11741424_a_at) / RFU LOC101060620 /// MAPK8IP1 (11723275_at) / Fold change /veh LOC101060620 /// MAPK8IP1 (11723275_at) / RFU SPTSSB (11747773_x_at) / Fold change /veh SPTSSB (11747773_x_at) / RFU PRSS12 (11739890_at) / Fold change /veh PRSS12 (11739890_at) / RFU BIN1 (11741810_x_at) / Fold change /veh BIN1 (11741810_x_at) / RFU WNT11 (11732464_a_at) / Fold change /veh WNT11 (11732464_a_at) / RFU C10orf10 (11716521_a_at) / Fold change /veh C10orf10 (11716521_a_at) / RFU C5orf56 (11738089_at) / Fold change /veh C5orf56 (11738089_at) / RFU CYB561 (11721691_x_at) / Fold change /veh CYB561 (11721691_x_at) / RFU ANKRD19P (11752326_a_at) / Fold change /veh ANKRD19P (11752326_a_at) / RFU OR2T12 /// OR2T33 /// OR2T8 (11738714_s_at) / Fold change /veh OR2T12 /// OR2T33 /// OR2T8 (11738714_s_at) / RFU VCAN (11748164_a_at) / Fold change /veh VCAN (11748164_a_at) / RFU JSRP1 (11732532_at) / Fold change /veh JSRP1 (11732532_at) / RFU KRTAP10-11 (11738290_x_at) / Fold change /veh KRTAP10-11 (11738290_x_at) / RFU MYO3A (11730013_a_at) / Fold change /veh MYO3A (11730013_a_at) / RFU EBF3 (11725865_a_at) / Fold change /veh EBF3 (11725865_a_at) / RFU CAMK2N1 (11719241_x_at) / Fold change /veh CAMK2N1 (11719241_x_at) / RFU C5orf56 (11738088_a_at) / Fold change /veh C5orf56 (11738088_a_at) / RFU OLFML3 (11715873_a_at) / Fold change /veh OLFML3 (11715873_a_at) / RFU LOC100653217 /// NTM (11731650_a_at) / Fold change /veh LOC100653217 /// NTM (11731650_a_at) / RFU MAPK11 (11762145_a_at) / Fold change /veh MAPK11 (11762145_a_at) / RFU FIZ1 (11724087_x_at) / Fold change /veh FIZ1 (11724087_x_at) / RFU OASL (11726364_x_at) / Fold change /veh OASL (11726364_x_at) / RFU SOX15 (11748057_x_at) / Fold change /veh SOX15 (11748057_x_at) / RFU CD79A (11719716_a_at) / Fold change /veh CD79A (11719716_a_at) / RFU HIST1H1D (11736915_at) / Fold change /veh HIST1H1D (11736915_at) / RFU CASKIN2 (11723855_a_at) / Fold change /veh CASKIN2 (11723855_a_at) / RFU LOC730098 (11760151_x_at) / Fold change /veh LOC730098 (11760151_x_at) / RFU OR4N2 (11742367_at) / Fold change /veh OR4N2 (11742367_at) / RFU PRRT2 (11749266_a_at) / Fold change /veh PRRT2 (11749266_a_at) / RFU SNX32 (11753110_a_at) / Fold change /veh SNX32 (11753110_a_at) / RFU CDHR5 (11726645_a_at) / Fold change /veh CDHR5 (11726645_a_at) / RFU RCAN1 (11760418_a_at) / Fold change /veh RCAN1 (11760418_a_at) / RFU FAM167A (11723789_a_at) / Fold change /veh FAM167A (11723789_a_at) / RFU FAM26E (11764081_at) / Fold change /veh FAM26E (11764081_at) / RFU ISYNA1 (11749810_s_at) / Fold change /veh ISYNA1 (11749810_s_at) / RFU ACY1 (11761880_at) / Fold change /veh ACY1 (11761880_at) / RFU 11764098_at / Fold change /veh 11764098_at / RFU SAMD14 (11745864_x_at) / Fold change /veh SAMD14 (11745864_x_at) / RFU NPB (11741838_a_at) / Fold change /veh NPB (11741838_a_at) / RFU TMPRSS6 (11731388_a_at) / Fold change /veh TMPRSS6 (11731388_a_at) / RFU KRTAP10-2 (11738614_at) / Fold change /veh KRTAP10-2 (11738614_at) / RFU ARHGAP8 /// PRR5-ARHGAP8 (11727945_x_at) / Fold change /veh ARHGAP8 /// PRR5-ARHGAP8 (11727945_x_at) / RFU KRTAP5-7 /// NADSYN1 (11734609_at) / Fold change /veh KRTAP5-7 /// NADSYN1 (11734609_at) / RFU RASL12 (11751679_a_at) / Fold change /veh RASL12 (11751679_a_at) / RFU CDKN2B (11736163_a_at) / Fold change /veh CDKN2B (11736163_a_at) / RFU PRF1 (11729649_at) / Fold change /veh PRF1 (11729649_at) / RFU, ZNF638 /// ZNF638-IT1 / Fold change vs veh, ZNF638 /// ZNF638-IT1 / RFU, PANK3 / Fold change vs veh, PANK3 / RFU, SH3YL1 / Fold change vs veh, SH3YL1 / RFU, ZEB2 / Fold change vs veh, ZEB2 / RFU, NRIP1 / Fold change vs veh, NRIP1 / RFU, PTTG1IP / Fold change vs veh, PTTG1IP / RFU, CAPN2 / Fold change vs veh, CAPN2 / RFU, MED14 / Fold change vs veh, MED14 / RFU, SNORA58 / Fold change vs veh, SNORA58 / RFU, C1orf63 / Fold change vs veh, C1orf63 / RFU, LRRFIP1 / Fold change vs veh, LRRFIP1 / RFU, NDUFAF7 / Fold change vs veh, NDUFAF7 / RFU, SLC12A2 / Fold change vs veh, SLC12A2 / RFU, IBTK / Fold change vs veh, IBTK / RFU, ESF1 / Fold change vs veh, ESF1 / Fold change vs veh, TMEM50B / RFU, TAOK1 / Fold change vs veh, TAOK1 / RFU, ACBD3 / Fold change vs veh, ACBD3 / RFU, TMA16 / Fold change vs veh, TMA16 / RFU, RWDD3 / Fold change vs veh, RWDD3 / RFU, BCAT1 / Fold change vs veh, BCAT1 / RFU, EDEM3 / Fold change vs veh, EDEM3 / RFU, TMEM33 / Fold change vs veh, TMEM33 / RFU, WDR75 / Fold change vs veh, WDR75 / RFU, AHCTF1 / Fold change vs veh, AHCTF1 / RFU, TFRC / Fold change vs veh, TFRC / RFU, ZDHHC17 / Fold change vs veh, ZDHHC17 / RFU, NOM1 / Fold change vs veh, NOM1 / RFU, ARL8B / Fold change vs veh, ARL8B / RFU, ZBTB11 / Fold change vs veh, ZBTB11 / RFU, TAMM41 / Fold change vs veh, TAMM41 / RFU, KIAA1704 /// LOC100996395 / Fold change vs veh, KIAA1704 /// LOC100996395 / RFU, ING1 / Fold change vs veh, ING1 / RFU, TRMT61B / Fold change vs veh, TRMT61B / RFU, FUBP3 / Fold change vs veh, FUBP3 / RFU, TP53 / Fold change vs veh, TP53 / RFU, TNKS2 / Fold change vs veh, TNKS2 / RFU, ZFP14 / Fold change vs veh, ZFP14 / RFU, ACTR2 / Fold change vs veh, ACTR2 / RFU, PPP3R1 / Fold change vs veh, PPP3R1 / RFU, PIK3R1 / Fold change vs veh, PIK3R1 / RFU, HNRNPA1 / Fold change vs veh, HNRNPA1 / RFU, RNF170 / Fold change vs veh, RNF170 / RFU, ZNF28 / Fold change vs veh, ZNF28 / RFU, RNGTT / Fold change vs veh, RNGTT / RFU, OGT / Fold change vs veh, OGT / RFU, BRD1 / Fold change vs veh, BRD1 / RFU, MARS / Fold change vs veh, MARS / RFU, ZNF655 / Fold change vs veh, ZNF655 / RFU, FAHD1 / Fold change vs veh, FAHD1 / RFU, BDP1 / Fold change vs veh, BDP1 / RFU, LRRCC1 / Fold change vs veh, LRRCC1 / RFU, ARID1A / Fold change vs veh, ARID1A / RFU, ZNF146 / Fold change vs veh, ZNF146 / RFU, ZNF330 / Fold change vs veh, ZNF330 / RFU, GPN3 / Fold change vs veh, GPN3 / RFU, C9orf123 / Fold change vs veh, C9orf123 / RFU, N4BP2L2 / Fold change vs veh, N4BP2L2 / RFU, ARFIP1 / Fold change vs veh, ARFIP1 / RFU, FAM179B / Fold change vs veh, FAM179B / RFU, BCL10 / Fold change vs veh, BCL10 / RFU, UHRF1BP1L / Fold change vs veh, UHRF1BP1L / RFU, BET1 / Fold change vs veh, BET1 / RFU, CNOT2 / Fold change vs veh, CNOT2 / RFU, ZNF268 / Fold change vs veh, ZNF268 / Fold change vs veh, ZNF507 / RFU, DGCR2 / Fold change vs veh, DGCR2 / RFU, WDSUB1 / Fold change vs veh, WDSUB1 / Fold change vs veh, HSP90B1 /// MIR3652 / RFU, ADSS / Fold change vs veh, ADSS / RFU, GK / Fold change vs veh, GK / RFU, ZNF148 / Fold change vs veh, ZNF148 / RFU, TAF9 / Fold change vs veh, TAF9 / RFU, SLC1A5 / Fold change vs veh, SLC1A5 / RFU, SLMO2 / Fold change vs veh, SLMO2 / RFU, ABCC4 / Fold change vs veh, ABCC4 / RFU, LOC101060439 /// RAP1B / Fold change vs veh, LOC101060439 /// RAP1B / RFU, RFX7 / Fold change vs veh, RFX7 / RFU, GTPBP10 / Fold change vs veh, GTPBP10 / RFU, CNEP1R1 / Fold change vs veh, CNEP1R1 / RFU, BIVM-ERCC5 /// ERCC5 / Fold change vs veh, BIVM-ERCC5 /// ERCC5 / RFU, ILF3 / Fold change vs veh, ILF3 / RFU 11762660_at / Fold change /veh 11762660_at / RFU VCAN (11757783_s_at) / Fold change /veh VCAN (11757783_s_at) / RFU DDX43 (11728927_at) / Fold change /veh DDX43 (11728927_at) / RFU KRT8 (11758188_x_at) / Fold change /veh KRT8 (11758188_x_at) / RFU NKD1 (11759106_at) / Fold change /veh NKD1 (11759106_at) / RFU SRD5A1 (11742802_a_at) / Fold change /veh SRD5A1 (11742802_a_at) / RFU TPSAB1 /// TPSB2 (11721975_s_at) / Fold change /veh TPSAB1 /// TPSB2 (11721975_s_at) / RFU GSTM3 (11746129_a_at) / Fold change /veh GSTM3 (11746129_a_at) / RFU IL23R (11737362_x_at) / Fold change /veh IL23R (11737362_x_at) / RFU TMEM51 (11727254_a_at) / Fold change /veh TMEM51 (11727254_a_at) / RFU PIWIL2 (11732686_x_at) / Fold change /veh PIWIL2 (11732686_x_at) / RFU ORM1 (11744905_x_at) / Fold change /veh ORM1 (11744905_x_at) / RFU CCDC152 (11743942_at) / Fold change /veh CCDC152 (11743942_at) / RFU ECM1 (11717891_a_at) / Fold change /veh ECM1 (11717891_a_at) / RFU IL23R (11748794_a_at) / Fold change /veh IL23R (11748794_a_at) / RFU TNFAIP8L3 (11732012_x_at) / Fold change /veh TNFAIP8L3 (11732012_x_at) / RFU MBOAT4 (11741988_at) / Fold change /veh MBOAT4 (11741988_at) / RFU 11764193_at / Fold change /veh 11764193_at / RFU TMEM53 (11763286_at) / Fold change /veh TMEM53 (11763286_at) / RFU MAGEB2 (11727129_at) / Fold change /veh MAGEB2 (11727129_at) / RFU TMEM200A (11744735_a_at) / Fold change /veh TMEM200A (11744735_a_at) / RFU CCDC152 (11751479_a_at) / Fold change /veh CCDC152 (11751479_a_at) / RFU FAM211A (11726209_a_at) / Fold change /veh FAM211A (11726209_a_at) / RFU RGS16 (11746705_a_at) / Fold change /veh RGS16 (11746705_a_at) / RFU VCAN (11755009_s_at) / Fold change /veh VCAN (11755009_s_at) / RFU RHOB (11743442_s_at) / Fold change /veh RHOB (11743442_s_at) / RFU RGS16 (11720943_a_at) / Fold change /veh RGS16 (11720943_a_at) / RFU RGS16 (11720944_at) / Fold change /veh RGS16 (11720944_at) / RFU, VPS4B / Fold change vs veh, VPS4B / RFU, CREB1 / Fold change vs veh, CREB1 / RFU, DNAJC13 / Fold change vs veh, DNAJC13 / RFU, GNAQ / Fold change vs veh, GNAQ / RFU, CDK5R1 / Fold change vs veh, CDK5R1 / RFU, ZRANB3 / Fold change vs veh, ZRANB3 / RFU, CUL4A / Fold change vs veh, CUL4A / RFU, CCNY / Fold change vs veh, CCNY / RFU, UFL1 / Fold change vs veh, UFL1 / RFU, COG3 / Fold change vs veh, COG3 / RFU, DIAPH2 / Fold change vs veh, DIAPH2 / RFU, SKA2 / Fold change vs veh, SKA2 / RFU, AFF3 / Fold change vs veh, AFF3 / RFU, LMF1 / Fold change vs veh, LMF1 / RFU, IPO11 / Fold change vs veh, IPO11 / RFU, DFFB / Fold change vs veh, DFFB / RFU, FOXP1 / Fold change vs veh, FOXP1 / RFU, CARD8 / Fold change vs veh, CARD8 / RFU, STRN3 / Fold change vs veh, STRN3 / RFU, ADK / Fold change vs veh, ADK / RFU, RASSF2 / Fold change vs veh, RASSF2 / RFU, WIPF1 / Fold change vs veh, WIPF1 / RFU, LARP1B / Fold change vs veh, LARP1B / RFU, RASA1 / Fold change vs veh, RASA1 / RFU, RB1 / Fold change vs veh, RB1 / RFU, PPFIA1 / Fold change vs veh, PPFIA1 / RFU, MAT2A / Fold change vs veh, MAT2A / RFU, CCT5 / Fold change vs veh, CCT5 / RFU, WDR92 / Fold change vs veh, WDR92 / RFU, CUX1 / Fold change vs veh, CUX1 / RFU, TTC7A / Fold change vs veh, TTC7A / RFU, TMEM135 / Fold change vs veh, TMEM135 / RFU, DEPTOR / Fold change vs veh, DEPTOR / RFU, CPM / Fold change vs veh, CPM / RFU, DNAJB6 / Fold change vs veh, DNAJB6 / RFU, CACNA2D3 / Fold change vs veh, CACNA2D3 / RFU, DTX4 / Fold change vs veh, DTX4 / RFU, TFCP2 / Fold change vs veh, TFCP2 / RFU, GMCL1 /// GMCL1P1 / Fold change vs veh, GMCL1 /// GMCL1P1 / RFU, AEBP2 / Fold change vs veh, AEBP2 / RFU, SNHG1 /// SNORD22 /// SNORD25 /// SNORD26 /// SNORD27 /// SNORD28 /// SNORD29 /// SNORD31 / Fold change vs veh, SNHG1 /// SNORD22 /// SNORD25 /// SNORD26 /// SNORD27 /// SNORD28 /// SNORD29 /// SNORD31 / Fold change (Aza/veh), C12orf56 (ProbeSet 11735607_a_at) / Fold change (ACY-1035/veh), C12orf56 (ProbeSet 11735607_a_at) / Fold change (Aza/veh), FGFR1OP (ProbeSet 11751329_s_at) / Fold change (ACY-1035/veh), FGFR1OP (ProbeSet 11751329_s_at) / Fold change (Aza/veh), VPS36 (ProbeSet 11739960_a_at) / Fold change (ACY-1035/veh), VPS36 (ProbeSet 11739960_a_at) / RFU SYPL1 (11715823_x_at) / Fold change /veh SYPL1 (11715823_x_at) / RFU IGFBP7 (11715501_s_at) / Fold change /veh IGFBP7 (11715501_s_at) / RFU REEP3 (11722064_at) / Fold change /veh REEP3 (11722064_at) / RFU IGLL1 (11728026_x_at) / Fold change /veh IGLL1 (11728026_x_at): dose or concentration left out as unconfirmed
Conditions: ProbeSet 11718977_a_at; LIST B

Nc1ncn([C@@H]2O[C@H](CO)[C@@H](O)[C@H]2O)c(=O)n1 [azacitidine]
RFU, CAPN2: 169.72 RFU
